Measured values from US12662451B2, “Chemical compounds and uses thereof” (GLAXOSMITHKLINE INTELLECTUAL PROPERTY (NO.4) LIMITED, priority 2023, dated 2026).
Where a name gives a salt, the structure may show the parent alone.

Assays:
[1] = biological target: T1, recombinant full-length WRN protein (1-1432) (Homo sapiens, UniProt Q14191); test: WRN unwinding activity, fluorogenic 384-well assay (Example A); assay type: biochemical; conditions: WRN unwinding activity, 4 hr; Table 2; read-out: 4 hr UNW pIC50 (converted)
T1 construct: recombinant full-length WRN protein (1-1432)
T1 sequence (Q14191 whole entry): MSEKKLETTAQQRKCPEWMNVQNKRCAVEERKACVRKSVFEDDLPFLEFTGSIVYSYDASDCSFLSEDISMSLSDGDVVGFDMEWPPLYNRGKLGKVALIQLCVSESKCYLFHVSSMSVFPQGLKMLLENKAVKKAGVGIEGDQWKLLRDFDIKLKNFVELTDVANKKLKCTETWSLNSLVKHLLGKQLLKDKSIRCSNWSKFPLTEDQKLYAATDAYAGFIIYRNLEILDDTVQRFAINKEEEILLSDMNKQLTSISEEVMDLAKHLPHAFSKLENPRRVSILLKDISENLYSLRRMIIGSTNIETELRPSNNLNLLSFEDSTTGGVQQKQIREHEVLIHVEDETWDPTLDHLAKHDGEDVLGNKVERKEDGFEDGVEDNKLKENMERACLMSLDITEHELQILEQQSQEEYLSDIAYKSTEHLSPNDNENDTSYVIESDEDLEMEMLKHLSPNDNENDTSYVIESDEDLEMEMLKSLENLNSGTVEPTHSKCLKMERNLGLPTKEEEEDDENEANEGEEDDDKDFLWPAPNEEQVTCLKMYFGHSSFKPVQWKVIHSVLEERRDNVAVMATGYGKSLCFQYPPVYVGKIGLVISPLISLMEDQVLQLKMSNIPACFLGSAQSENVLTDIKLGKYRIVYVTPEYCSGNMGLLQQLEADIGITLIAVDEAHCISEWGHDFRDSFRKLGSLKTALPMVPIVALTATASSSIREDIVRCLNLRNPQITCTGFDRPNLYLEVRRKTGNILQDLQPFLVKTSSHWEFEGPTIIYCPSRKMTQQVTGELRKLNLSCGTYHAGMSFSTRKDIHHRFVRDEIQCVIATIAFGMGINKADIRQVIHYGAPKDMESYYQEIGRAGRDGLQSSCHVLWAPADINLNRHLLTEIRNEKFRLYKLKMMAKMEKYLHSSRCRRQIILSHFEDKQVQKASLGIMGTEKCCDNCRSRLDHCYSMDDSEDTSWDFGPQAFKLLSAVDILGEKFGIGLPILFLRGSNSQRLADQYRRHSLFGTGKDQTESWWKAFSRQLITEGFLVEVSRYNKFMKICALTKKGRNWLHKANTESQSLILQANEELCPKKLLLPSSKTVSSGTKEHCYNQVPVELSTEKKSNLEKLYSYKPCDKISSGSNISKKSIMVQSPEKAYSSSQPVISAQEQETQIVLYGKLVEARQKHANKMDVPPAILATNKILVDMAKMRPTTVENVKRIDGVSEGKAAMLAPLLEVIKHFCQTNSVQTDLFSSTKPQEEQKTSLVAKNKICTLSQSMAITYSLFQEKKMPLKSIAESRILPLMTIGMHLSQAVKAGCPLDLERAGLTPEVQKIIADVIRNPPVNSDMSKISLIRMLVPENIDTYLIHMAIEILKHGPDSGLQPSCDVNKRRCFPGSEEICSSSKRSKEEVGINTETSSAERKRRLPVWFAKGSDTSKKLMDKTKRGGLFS
Summary of the method: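 Read-out is end-point unwinding of a fluorophore/quencher duplex (ex 525, em 598 nm) after 60 min with 200 μM ATP and 12 nM DNA (2× stocks), EDTA stop. Compound first sat 4 h with 200 pM WRN (2× stock) in pH 8.0 Tris buffer; four-parameter fit gives pIC50.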

[2] = tested on: SW48 human colorectal cancer cells (MSI-H cancer cells); test: SW48 cell viability, CellTiter-Glo, 120 hours (Example B); conditions: Table 2; for CC50: Homo sapiens, SW48, 120 h, read-out: SW48 pCC50, SW48 cell viability, 120 hours incubation (converted); for SW48 pCC50: SW48 cell viability, 120 hours incubation

Row | Compound | IC50 [1] | CC50 [2] | SW48 pCC50 [2]
1 | Cc1nc2cc(S(=O)(=O)N(C)c3ccc([C@@H]4C[C@H](N5CCOCC5)C[C@H](C(=O)Nc5ccc(C(F)(F)F)cc5F)[C@H]4C(=O)O)cc3)ccc2n1C (relative stereo) [Example 338, rel-(1R,2R,4R,6S)-2-((2-fluoro-4-(trifluoromethyl)phenyl)carbamoyl)-4-morpholino-6-(4-((N,1,2-trimethyl-1H-benzo[d]imidazole)-5-sulfonamido)phenyl)cyclohexane-1-carboxylic acid] | 79.4 nM | 15800 nM | 
2 | Cc1nc2cc(S(=O)(=O)N(C)c3ccc([C@H]4C[C@@H](N5CCCCC5)C[C@@H](C(=O)Nc5ccc(C(F)(F)F)cc5F)[C@@H]4C(=O)O)cc3)ccc2n1C (relative stereo) [Example 348, rel-(1R,2R,4R,6S)-2-((2-fluoro-4-(trifluoromethyl)phenyl)carbamoyl)-4-(piperidin-1-yl)-6-(4-((N,1,2-trimethyl-1H-benzo[d]imidazole)-5-sulfonamido)phenyl)cyclohexane-1-carboxylic acid] | 1.58 nM | 398 nM | 
3 | Cc1nc2cc(S(=O)(=O)N(C)c3ccc([C@H]4C[C@H](N5CCCCC5)C[C@@H](C(=O)Nc5ccc(C(F)(F)F)cc5F)[C@@H]4C(=O)O)cc3)ccc2n1C (relative stereo) [Example 349, rel-(1R,2R,4S,6S)-2-((2-fluoro-4-(trifluoromethyl)phenyl)carbamoyl)-4-(piperidin-1-yl)-6-(4-((N,1,2-trimethyl-1H-benzo[d]imidazole)-5-sulfonamido)phenyl)cyclohexane-1-carboxylic acid] | 251 nM | 12600 nM | 
4 | Cc1nc2cc(S(=O)(=O)N(C)c3ccc([C@H]4C[C@@H](N5CC6(F)CC5C6)C[C@@H](C(=O)Nc5ccc(C(F)(F)F)cc5F)[C@@H]4C(=O)O)cc3)ccc2n1C (relative stereo) [Example 398, rel-(1R,2R,4R,6S)-2-((2-fluoro-4-(trifluoromethyl)phenyl)carbamoyl)-4-(4-fluoro-2-azabicyclo[2.1.1]hexan-2-yl)-6-(4-((N,1,2-trimethyl-1H-benzo[d]imidazole)-5-sulfonamido)phenyl)cyclohexane-1-carboxylic acid] | 100 nM | 25100 nM | 
5 | Cc1nc2cc(S(=O)(=O)N(C)c3ccc([C@H]4CCC[C@H](C(=O)Nc5ccc(C(C)C)cc5)[C@@H]4C(=O)O)cc3)ccc2n1C (single isomer, unassigned) [Example 73] | 1.26 nM | 3980 nM | 
6 | Cc1nc2cc(S(=O)(=O)N(C)c3ccc([C@H]4CCC[C@@H](C(=O)Nc5ccc(C(C)C)cc5)[C@H]4C(=O)O)cc3)ccc2n1C (single isomer, unassigned) [Example 77] | 3.98 nM | 3980 nM | 
7 | Cc1nc2cc(S(=O)(=O)N(C)c3ccc([C@H]4CCC[C@@H](C(=O)Nc5ccc(C(C)C)cc5)[C@@H]4C(=O)O)cc3)ccc2n1C (single isomer, unassigned) [Example 80] | 1.58 nM | 501 nM | 
8 | Cc1nc2cc(S(=O)(=O)N(C)c3ccc([C@H]4CCC[C@@H](C(=O)Nc5ccc(C(F)(F)F)cc5F)[C@@H]4C(=O)O)cc3)ccc2n1C (single isomer, unassigned) [Example 84] | 158 nM |  | 5.3
9 | CN(c1ccc([C@H]2CCC[C@@H](C(=O)Nc3ccc(C(F)(F)F)cc3F)[C@@H]2C(=O)O)cc1)S(=O)(=O)c1ccc2[nH]cnc2c1 (single isomer, unassigned) [Example 86] | 1.58 nM | 2510 nM | 
10 | Cc1nc2cc(S(=O)(=O)N(C)c3ccc([C@H]4CCC[C@@H](C(=O)Nc5ccc(C(F)(F)F)cc5F)[C@@H]4C(=O)O)cc3)ccc2[nH]1 (single isomer, unassigned) [Example 92] | 1.58 nM | 794 nM | 
11 | Cc1nc2cc(S(=O)(=O)N(C)c3ccc([C@H]4C[C@@H](O)C[C@@H](C(=O)Nc5ccc(C(F)(F)F)cc5F)[C@@H]4C(=O)O)cc3)ccc2n1C (single isomer, unassigned) [Example 145] | 1.58 nM | 1260 nM | 
12 | [2H]C([2H])([2H])O[C@@H]1C[C@H](c2ccc(N(C)S(=O)(=O)c3ccc4c(c3)nc(C)n4C)cc2)[C@@H](C(=O)O)[C@H](C(=O)Nc2ccc(C(F)(F)F)cc2F)C1 (single isomer, unassigned) [Example 147] | 79.4 nM | 12600 nM | 
13 | Cc1nc2cc(S(=O)(=O)N(C)c3ccc([C@H]4C[C@@H](Oc5ccccc5)C[C@@H](C(=O)Nc5ccc(C(F)(F)F)cc5F)[C@@H]4C(=O)O)cc3)ccc2n1C (single isomer, unassigned) [Example 152] | 10 nM | 2000 nM | 
14 | Cc1nc2cc(S(=O)(=O)N(C)c3ccc([C@@H]4CCC[C@H](C(=O)Nc5ccc(C(F)(F)F)cc5F)[C@H]4C(=O)O)nc3)ccc2n1C (single isomer, unassigned) [Example 160] | 50.1 nM | 15800 nM | 
15 | Cc1nc2cc(S(=O)(=O)N(C)c3ccc([C@@H]4CCC[C@H](C(=O)Nc5ccc(C(F)(F)F)cc5F)[C@H]4C(=O)O)cc3C#N)ccc2n1C (single isomer, unassigned) [Example 162] | 2 nM | 3160 nM | 
16 | Cc1nc2cc(S(=O)(=O)N(C)c3cnc([C@H]4CCC[C@@H](C(=O)Nc5ccc(C(F)(F)F)cc5F)[C@@H]4C(=O)O)cn3)ccc2n1C (single isomer, unassigned) [Example 164] | 1.26 nM | 2510 nM | 
17 | CN1CCC[C@H](c2cccc(S(=O)(=O)N(C)c3ccc([C@H]4CCC[C@@H](COc5ccc(C(F)(F)F)cc5)[C@@H]4C(=O)O)cc3)c2)C1 (single isomer, unassigned) [Example 217, rel-(1R,2S,6R)-2-(4-((N-methyl-3-((S*)-1-methylpiperidin-3-yl)phenyl)sulfonamido)phenyl)-6-((4-(trifluoromethyl)phenoxy)methyl)cyclohexane-1-carboxylic acid] | 126 nM | 10000 nM | 
18 | CN1CCC[C@@H](c2cccc(S(=O)(=O)N(C)c3ccc([C@H]4CCC[C@@H](COc5ccc(C(F)(F)F)cc5)[C@@H]4C(=O)O)cc3)c2)C1 (single isomer, unassigned) [Example 218, rel-(1R,2S,6R)-2-(4-((N-methyl-3-((R*)-1-methylpiperidin-3-yl)phenyl)sulfonamido)phenyl)-6-((4-(trifluoromethyl)phenoxy)methyl)cyclohexane-1-carboxylic acid] | 39.8 nM | 15800 nM | 
19 | CCO[C@@H]1C[C@H](COc2ccc(C(F)(F)F)cc2)[C@@H](C(=O)O)[C@H](c2ccc(N(C)S(=O)(=O)c3ccc4c(c3)nc(C)n4C)cc2)C1 (single isomer, unassigned) [Example 220] | 316 nM | 15800 nM | 
20 | O=C(O)[C@@H]1[C@@H](C(=O)Nc2ccc(C(F)(F)F)cc2F)CCC[C@H]1c1ccc(NS(=O)(=O)c2ccc3[nH]cnc3c2)cc1 (single isomer, unassigned) [Example 225] | 0.251 nM | 7940 nM | 
21 | N#Cc1cc([C@H]2CCC[C@@H](C(=O)Nc3ccc(C(F)(F)F)cc3F)[C@@H]2C(=O)O)ccc1Br (single isomer, unassigned) [Example 230] | 100 nM | 7940 nM | 
22 | Cc1nc2cc(S(=O)(=O)N(C)c3ccc([C@@H]4CC[C@H](C)[C@H](C(=O)Nc5ccc(C(F)(F)F)cc5F)[C@H]4C(=O)O)cc3)ccc2n1C (single isomer, unassigned) [Example 236] | 631 nM | 7940 nM | 
23 | Cc1nc2cc(S(=O)(=O)N3CCOc4cc([C@H]5CCC[C@@H](C(=O)Nc6ccc(C(F)(F)F)cc6F)[C@@H]5C(=O)O)ccc43)ccc2n1C (single isomer, unassigned) [Example 241] | 5.01 nM | 1260 nM | 
24 | Cc1nc2cc(S(=O)(=O)N(C)c3ccc([C@H]4CCC[C@@H](C(=O)Nc5ccc(C(F)(F)F)cc5F)[C@@H]4C(=O)O)cc3)cc([C@@H]3CCCNC3)c2n1C (single isomer, unassigned) [Example 268, (1R,2R,6S)-2-((2-fluoro-4-(trifluoromethyl)phenyl)carbamoyl)-6-(4-((N,1,2-trimethyl-7-((S*)-piperidin-3-yl)-1H-benzo[d]imidazole)-5-sulfonamido)phenyl)cyclohexane-1-carboxylic acid hydrochloride] | 0.794 nM | 15800 nM | 
25 | Cc1nc2cc(S(=O)(=O)N(C)c3ccc([C@@H]4C[C@H](C#N)C[C@H](C(=O)Nc5ccc(C(F)(F)F)cc5F)[C@H]4C(=O)O)cc3)ccc2n1C (single isomer, unassigned) [Example 286] | 100 nM | 12600 nM | 
26 | Cc1nc2cc(S(=O)(=O)N(C)c3ccc([C@@H]4C[C@H](OCC5CC6CCC(C5)O6)C[C@H](C(=O)Nc5ccc(C(F)(F)F)cc5F)[C@H]4C(=O)O)cc3)ccc2n1C (single isomer, unassigned) [Example 359] | 1580 nM | 12600 nM | 
27 | Cc1nc2cc(S(=O)(=O)N(C)c3ccc([C@@H]4CCC[C@H](C(=O)Nc5ccc(C(F)(F)F)cc5F)[C@H]4C(=O)O)cc3F)ccc2n1C (single isomer, unassigned) [Example 369] | 631 nM | 12600 nM | 
28 | Cc1nc2cc(S(=O)(=O)N(C)c3ccc([C@H]4CCC[C@@H](C(=O)Nc5ccc(C(F)(F)F)cc5F)[C@@H]4C(=O)O)c(F)c3)ccc2n1C (single isomer, unassigned) [Example 375] | 100 nM |  | 4.7
